The text below walks through data of patent publication US20190008803A1, “COMBINATIONS OF OPIOID RECEPTOR LIGANDS AND CYTOCHROME P450 INHIBITORS” (TREVENA, INC., priority 2015, published 2019).

Where only a bound is given, the exact number is not on record here.

For one data set, the target named is T1, CYP3A4 (Homo sapiens, UniProt P08684).
T1 construct: incubations of test compound (1 μM) with human liver microsomes (0.25 mg/mL); from tissue; host or cells: human liver microsomes
In words: Metabolic stability in human liver microsomes with/without troleandomycin: percent contribution of CYP3A4. The class given is in vitro ADME. The following applies: human liver microsomes 0.25 mg/mL, test compound 1 μM, troleandomycin 50 μM; from intrinsic clearance without and with inhibitor. The method, then: (§1) Compounds 141, 208, 246, 265, 267, 271 or 277 were analyzed to determine whether they are metabolized by CYP2D6 and/and/or CYP3A4. The studies were designed to evaluate the metabolic stability of compounds in human liver microsomes for the purpose of determining the percent contribution of CYP2D6 and CYP3A4 to their in vitro metabolism. […] Incubations are performed with or without CYP specific inhibitors. Incubations with the CYP2D6 direct inhibitor, quinidine (1 μM) quantify the percent contribution of CYP2D6 to metabolism. Incubations with the CYP3A4 metabolism-dependent inhibitor, troleandomycin (50 μM), define the percent contribution of CYP3A4. The percentage of CYP2D6 and CYP3A4 contribution is calculated using intrinsic clearance values in the absence and presence of the specific CYP inhibitor (Gibbs et al. 2006).
A general note: Microsomes from liver hold many membrane-bound enzymes, among them those of drug oxidation.

A further data set deals with mice. The data set is described as follows: Hot plate assay for antinociception, subcutaneous dosing. The format is in vivo, mouse. The settings on record: for ED50: 0.5 h, re-tested 30 min after drug administration; for ED50 / analgesic effect in the mouse hot plate assay compared to morphine: SC. The method, then: The hot plate assay is adapted from the procedure originally described by O'Callaghan and Holtzman (JPET, 192, 497, 1975) and is commonly used to determine the potential analgesic efficacy of opioid agonists. The antinociceptive effect of the composition(s) described herein in the hot plate is expressed in % MPE (Maximum Possible Effect).
Rats (175-250 g) or mice (20-30 g) acclimated to the vivarium for at least 48 hr prior to behavioral testing. Test drugs were administered by the subcutaneous (SC) route. Animals were placed on the hot plate, which the temperature was set at 50-56° C., depending on the in vitro potency of the compound. A cutoff time of 30-60 seconds was used depending on the temperature of the hot plate so that the paws of the animal displaying analgesia, was not damaged by the heat stimulus. The cutoff time was considered a 100% response to the thermal insult. Prior to drug treatment, each animal was tested to determine the baseline response. Thirty minutes after drug administration, animals were re-tested. Dose response experiments were performed to evaluate the potency of the test compound when various doses were administered at the point when maximal analgesia is observed.
The % MPE was calculated according to the following formula:
% MPE=[(Post drug latency−baseline latency)/(60 or 30−baseline latency)]×100
ED50 values were calculated from the mean % MPE values for each group using log dose-response curves by least-squares regression analysis.
On the technique in general: Hot-plate and tail-flick tests time the reaction to a heat stimulus.

The target of a further data set is T2, CYP2D6 (Homo sapiens, UniProt P10635).
T2 construct: incubations of test compound (1 μM) with human liver microsomes (0.25 mg/mL); from tissue; host or cells: human liver microsomes
T2 sequence (P10635 whole entry): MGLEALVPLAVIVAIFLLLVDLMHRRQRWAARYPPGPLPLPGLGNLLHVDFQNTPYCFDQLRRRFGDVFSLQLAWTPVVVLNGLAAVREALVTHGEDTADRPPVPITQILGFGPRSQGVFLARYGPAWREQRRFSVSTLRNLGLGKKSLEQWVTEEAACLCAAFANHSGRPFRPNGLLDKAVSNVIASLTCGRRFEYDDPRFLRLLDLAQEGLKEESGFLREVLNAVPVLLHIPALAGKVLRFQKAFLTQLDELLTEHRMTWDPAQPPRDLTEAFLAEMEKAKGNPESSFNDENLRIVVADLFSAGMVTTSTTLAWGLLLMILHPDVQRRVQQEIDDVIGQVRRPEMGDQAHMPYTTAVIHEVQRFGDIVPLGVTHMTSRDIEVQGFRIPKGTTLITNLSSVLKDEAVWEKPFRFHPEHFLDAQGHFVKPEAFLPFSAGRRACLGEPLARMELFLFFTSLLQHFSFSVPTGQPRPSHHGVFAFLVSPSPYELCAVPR
The data set is described as follows: Metabolic stability in human liver microsomes with/without quinidine: percent contribution of CYP2D6. The class given is in vitro ADME. The settings on record: human liver microsomes 0.25 mg/mL, test compound 1 μM, quinidine 1 μM; from intrinsic clearance without and with inhibitor. The method, then:
as §1

The nature of data set [1]: Oral availability in humans with low versus normal CYP2D6 activity. The settings on record: human with low CYP2D6 activity compared to humans with normal CYP2D6 activity (data not shown). The format is in vivo.

T1 sequence (P08684 whole entry): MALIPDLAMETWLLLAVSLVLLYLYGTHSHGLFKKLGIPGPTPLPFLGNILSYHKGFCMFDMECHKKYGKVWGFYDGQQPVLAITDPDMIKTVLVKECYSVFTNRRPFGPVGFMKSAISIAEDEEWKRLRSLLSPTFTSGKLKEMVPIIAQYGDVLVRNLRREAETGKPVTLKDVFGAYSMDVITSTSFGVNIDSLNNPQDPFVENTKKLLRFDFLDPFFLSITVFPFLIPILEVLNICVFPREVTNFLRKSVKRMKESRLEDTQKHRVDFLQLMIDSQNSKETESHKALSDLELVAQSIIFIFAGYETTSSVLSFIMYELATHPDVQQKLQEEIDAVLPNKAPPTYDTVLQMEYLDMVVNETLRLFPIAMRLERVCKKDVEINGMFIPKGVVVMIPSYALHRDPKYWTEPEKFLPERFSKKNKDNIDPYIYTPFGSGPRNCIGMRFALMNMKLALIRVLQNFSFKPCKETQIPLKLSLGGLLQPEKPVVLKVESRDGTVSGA

As to `Fc1cncc(CNCC[C@@]2(c3ccccn3)CCOC3(CCCC3)C2)c1` [Compound 265], the CYP3A4 contribution on CYP3A4 is listed as greater than 50%.
By ED50 is commonly meant the dose that gives a 50% effect, or the effect in half of the subjects. A high value points to weaker potency. In the case of `c1ccc(CNCC[C@@]2(c3ccccn3)CCOC3(CCCC3)C2)cc1` [Compound 28], in the data set with mice (mouse hot plate), it took a dose of 1.2 mg/kg to reach the 50% effect level (ED50). Also, the “analgesic effect in the mouse hot plate assay compared to morphine” value with mice was “more robust analgesic effect”.
Consider `CN1CC[C@]23c4c5ccc(O)c4O[C@H]2[C@@H](O)C=C[C@H]3[C@H]1C5` [Morphine, reference compound], for which, in the data set on mice (mouse hot plate), the ED50 came to 3.8 mg/kg. In the data set on mice (at a dose of 10 mg/kg SC), the “efficacy in the mouse hot plate” value is recorded as “full efficacy”.
`Cc1ccc(CNCC[C@@]2(c3ccc(F)cc3)CCOC3(CCCC3)C2)s1` [Compound 145]: in the data set with mice (mouse hot plate), the 50% effect level (ED50) was put at a dose of 5.9 mg/kg.
Compound `FC(F)(F)c1ccnc(CNCC[C@@]2(c3ccccn3)CCOC3(CCCC3)C2)c1` [Compound 277] had a CYP2D6 contribution at CYP2D6 greater than 20%. Besides, the CYP3A4 contribution at CYP3A4 is greater than 50%.
On to `FC(F)(F)c1cncc(CNCC[C@@]2(c3ccccn3)CCOC3(CCCC3)C2)c1` [Compound 271], for which the CYP2D6 contribution on CYP2D6 is given as 3%. This compound also had a CYP3A4 contribution on CYP3A4 of 45%.
For `Fc1ccc([C@]2(CCNCc3ccccc3)CCOC3(CCCC3)C2)cc1` [Compound 81, benzyl({2-[(9R)-9-(4-fluorophenyl)-6-oxaspiro[4.5]decan-9-yl]ethyl})amine], the “% MPE” value in the data set on mice (mouse hot plate, at 10 mg/kg SC) was 100% at 10.
At CYP2D6, `Cc1cccc(CNCC[C@@]2(c3ccccn3)CCOC3(CCCC3)C2)c1` [Compound 246] displayed a CYP2D6 contribution of 80%. In addition, the CYP3A4 contribution at CYP3A4 is 25%.
Consider `Brc1csc(CNCC[C@@]2(c3ccccn3)CCOC3(CCCC3)C2)c1` [Compound 208], for which the CYP2D6 contribution at CYP2D6 worked out at 3%. For the same compound, on CYP3A4, the CYP3A4 contribution is on record as 17%.
`Clc1cncc(CNCC[C@@]2(c3ccccn3)CCOC3(CCCC3)C2)c1` [Compound 267] gave a CYP2D6 contribution at CYP2D6 of 8%. The compound further had a CYP3A4 contribution at CYP3A4 of 55%.
Turning to `Cc1cccc(CNCC[C@@]2(c3ccc(F)cc3)CCOC3(CCCC3)C2)c1` [Compound 122, {2-[(9R)-9-(4-fluorophenyl)-6-oxaspiro[4.5]decan-9-yl]ethyl}[(3-methylphenyl)methyl]amine], it took a dose of 1.1 mg/kg to reach the 50% effect level in the data set on mice (mouse hot plate) (ED50). In the data set with mice, the “analgesic effect in the mouse hot plate assay compared to morphine” value was “more robust analgesic effect”.
With `COc1ccsc1CNCC[C@@]1(c2ccccn2)CCOC2(CCCC2)C1` [Compound 140, [(3-methoxythiophen-2-yl)methyl]({2-[(9R)-9-(pyridin-2-yl)-6-oxaspiro[4.5]decan-9-yl]ethyl})amine], the CYP2D6 contribution on CYP2D6 came to 50%. The same compound came in with a CYP3A4 contribution on CYP3A4 of 50%. The oral availability entry in data set [1] is given as “substantially higher oral availability”.
